Measurements reported in ChEMBL document CHEMBL1201862, “PubChem BioAssay data set” (2004).
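Following 48 hours of exposure in 96-well plates, responses at five concentrations were used to interpolate endpoints linearly. Abbreviation: GI50, concentration required for 50% inhibition of growth.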 Calls of active or inactive are those of the source. Rule as the data show it: active = GI50 up to about 1.1 µM and inactive = higher.

Tests used:
Experiment in all cases: inhibition of tumour cell growth, NCI panel, 48 h
KM12 = test system: KM12
A549 = test system: A549
MDA-MB-231 = test system: MDA-MB-231
NCI-H522 = test system: NCI-H522
OVCAR-5 = test system: OVCAR-5
UO-31 = test system: UO-31
HT-29 = test system: HT-29
SN12C = test system: SN12C
MDA-MB-435 = test system: MDA-MB-435
IGROV-1 = test system: IGROV-1
SR = test system: SR
SF-268 = test system: SF-268
NCI-H226 = test system: NCI-H226
Malme-3M = test system: Malme-3M
SK-MEL-2 = test system: SK-MEL-2
OVCAR-3 = test system: OVCAR-3
UACC-62 = test system: UACC-62
TK-10 = test system: TK-10
MOLT-4 = test system: MOLT-4
SNB-75 = test system: SNB-75

| SMILES | GI50 (KM12) | GI50 (A549) | GI50 (MDA-MB-231) | GI50 (NCI-H522) | GI50 (OVCAR-5) | GI50 (UO-31) | GI50 (HT-29) | GI50 (SN12C) | GI50 (MDA-MB-435) | GI50 (IGROV-1) | GI50 (SR) | GI50 (SF-268) | GI50 (NCI-H226) | GI50 (Malme-3M) | GI50 (SK-MEL-2) | GI50 (OVCAR-3) | GI50 (UACC-62) | GI50 (TK-10) | GI50 (MOLT-4) | GI50 (SNB-75) |
| --- | --- | --- | --- | --- | --- | --- | --- | --- | --- | --- | --- | --- | --- | --- | --- | --- | --- | --- | --- | --- |
| O=C1NC(Cc2c[nH]c3ccccc23)C(=O)N2C(c3ccccc3)c3[nH]c4ccccc4c3C[C@@H]12 (some centres undefined) | 19.3 µM (inactive) | 25.8 µM (inactive) | 20.6 µM (inactive) | 18.1 µM (inactive) | 22 µM (inactive) | 23.5 µM (inactive) | 22.1 µM (inactive) | 16.4 µM (inactive) | 18.8 µM (inactive) | 22.2 µM (inactive) | 12.8 µM (inactive) | 26.1 µM (inactive) | 35.6 µM (inactive) | 15 µM (inactive) | 23.8 µM (inactive) | 15.5 µM (inactive) | 17.2 µM (inactive) | 26.9 µM (inactive) | 12.6 µM (inactive) |  |
| CCc1nnc(CC)n1N1C(=O)CCC1=O | > 100 µM (inactive) | > 100 µM (inactive) | > 100 µM (inactive) | > 100 µM (inactive) | > 100 µM (inactive) | > 100 µM (inactive) | > 100 µM (inactive) | > 100 µM (inactive) | > 100 µM (inactive) | > 100 µM (inactive) | > 100 µM (inactive) | > 100 µM (inactive) |  |  | > 100 µM (inactive) | > 100 µM (inactive) | > 100 µM (inactive) | > 100 µM (inactive) | > 100 µM (inactive) | > 100 µM (inactive) |
| CC12CCCCC1=[N+]([O-])C(C)(C)N2O (centres undefined) | > 100 µM (inactive) | > 100 µM (inactive) | > 100 µM (inactive) |  | > 100 µM (inactive) | > 100 µM (inactive) | > 100 µM (inactive) | > 100 µM (inactive) | > 100 µM (inactive) | > 100 µM (inactive) | > 100 µM (inactive) | > 100 µM (inactive) | > 100 µM (inactive) | > 100 µM (inactive) | > 100 µM (inactive) | > 100 µM (inactive) | > 100 µM (inactive) | > 100 µM (inactive) |  |  |
| CN(C)c1nc(NN)c2c(-c3ccccc3)c(-c3ccccc3)oc2n1 | > 100 µM (inactive) | > 100 µM (inactive) | > 100 µM (inactive) | 68.2 µM (inactive) | > 100 µM (inactive) | > 100 µM (inactive) | 98.4 µM (inactive) | > 100 µM (inactive) | > 100 µM (inactive) | > 100 µM (inactive) | 72.3 µM (inactive) | 89.1 µM (inactive) | > 100 µM (inactive) |  |  |  | 44.8 µM (inactive) | > 100 µM (inactive) | > 100 µM (inactive) | 96.8 µM (inactive) |
| CCOP(C)(=O)C(Nc1ccc(F)cc1)c1ccc(F)cc1 (centres undefined) | > 100 µM (inactive) | > 100 µM (inactive) | > 100 µM (inactive) | > 100 µM (inactive) | > 100 µM (inactive) | 71.3 µM (inactive) | > 100 µM (inactive) | > 100 µM (inactive) | > 100 µM (inactive) | > 100 µM (inactive) | > 100 µM (inactive) | > 100 µM (inactive) | > 100 µM (inactive) | > 100 µM (inactive) | > 100 µM (inactive) | > 100 µM (inactive) | > 100 µM (inactive) | > 100 µM (inactive) | > 100 µM (inactive) |  |
| COC1O[C@H]2[C@H]3[C@@H]1[C@@H](OS(=O)(=O)c1ccc(C)cc1)C(=O)N3C[C@H]2O (some centres undefined) | > 100 µM (inactive) | > 100 µM (inactive) | > 100 µM (inactive) |  | > 100 µM (inactive) | > 100 µM (inactive) | > 100 µM (inactive) |  | > 100 µM (inactive) |  | > 100 µM (inactive) | > 100 µM (inactive) | > 100 µM (inactive) | > 100 µM (inactive) | > 100 µM (inactive) | > 100 µM (inactive) | > 100 µM (inactive) | > 100 µM (inactive) | 48.5 µM (inactive) |  |
| COC(=O)/C(=C(\C)NC(C)=O)c1c(C(=O)OC)[nH]c2ccccc12 | > 100 µM (inactive) | > 100 µM (inactive) | > 100 µM (inactive) | 95.3 µM (inactive) | > 100 µM (inactive) | > 100 µM (inactive) | > 100 µM (inactive) | > 100 µM (inactive) | > 100 µM (inactive) | > 100 µM (inactive) | > 100 µM (inactive) | > 100 µM (inactive) | > 100 µM (inactive) | > 100 µM (inactive) | > 100 µM (inactive) | > 100 µM (inactive) | > 100 µM (inactive) | > 100 µM (inactive) | > 100 µM (inactive) |  |
| c1ccc(-c2c(-c3cccs3)[nH]c(-c3cccs3)c2-c2ccccn2)nc1 | 23.1 µM (inactive) | 18.1 µM (inactive) | 20.3 µM (inactive) |  | 30.5 µM (inactive) | 19.2 µM (inactive) | 14.2 µM (inactive) | 21.1 µM (inactive) | 15.7 µM (inactive) | 22.5 µM (inactive) | 26.2 µM (inactive) | 19.7 µM (inactive) | 23 µM (inactive) | 25.5 µM (inactive) |  | 24 µM (inactive) | 18 µM (inactive) | 40.2 µM (inactive) | 11.7 µM (inactive) | 17.6 µM (inactive) |
| [N-]=[N+]=NI1OC(C(F)(F)F)(C(F)(F)F)c2ccccc21 | 15.6 µM (inactive) | 14.9 µM (inactive) | 15.1 µM (inactive) | 5.83 µM (inactive) | 15.1 µM (inactive) | 11 µM (inactive) | 17.3 µM (inactive) | 14.6 µM (inactive) | 17.5 µM (inactive) | 16.3 µM (inactive) | 15.6 µM (inactive) | 13.6 µM (inactive) | 18.4 µM (inactive) |  | 16 µM (inactive) | 14.7 µM (inactive) | 18 µM (inactive) | 16.5 µM (inactive) | 14.7 µM (inactive) | 13.5 µM (inactive) |
| COC(CN(C=O)[C@@H](c1ccc(Cl)cc1)c1cc2ccccc2o1)OC | 11.1 µM (inactive) | 21 µM (inactive) | 18.5 µM (inactive) | 14.5 µM (inactive) | 15.8 µM (inactive) | 16.5 µM (inactive) | 17.1 µM (inactive) | 17.2 µM (inactive) | 18.5 µM (inactive) | 14.8 µM (inactive) |  | 15.3 µM (inactive) | 18.1 µM (inactive) | 0.397 µM (active) | 16.7 µM (inactive) | 12.7 µM (inactive) | 14.8 µM (inactive) | 15.5 µM (inactive) | 17.8 µM (inactive) | 22.9 µM (inactive) |
| Cc1ccc(C2=CC(=O)/C(=C\C(=O)c3ccc(Cl)cc3)O2)cc1 | 22.8 µM (inactive) |  | 12.1 µM (inactive) | 1.97 µM (inactive) | 21.1 µM (inactive) | 9.51 µM (inactive) | 4.14 µM (inactive) |  | 18 µM (inactive) | 16.2 µM (inactive) | 1.42 µM (inactive) | 17.1 µM (inactive) | 17.2 µM (inactive) | 17.2 µM (inactive) |  | 4.7 µM (inactive) | 11.6 µM (inactive) | 3.23 µM (inactive) | 3.94 µM (inactive) | 35.8 µM (inactive) |
| O=c1oc2cc(O)ccc2cc1-c1nc2ccccc2s1 | 42.3 µM (inactive) | 19.1 µM (inactive) | 23.7 µM (inactive) |  | 30.8 µM (inactive) | 16.4 µM (inactive) | 29 µM (inactive) | 21.8 µM (inactive) | 27.3 µM (inactive) | 35.4 µM (inactive) | 25.8 µM (inactive) |  |  |  | 21.8 µM (inactive) | 16.3 µM (inactive) | 7.21 µM (inactive) | 30.1 µM (inactive) | 0.678 µM (active) |  |
| Cc1ccc(/C=N/Nc2ncccn2)s1 | > 100 µM (inactive) | > 100 µM (inactive) | > 100 µM (inactive) | > 100 µM (inactive) | > 100 µM (inactive) | > 100 µM (inactive) | > 100 µM (inactive) | > 100 µM (inactive) | > 100 µM (inactive) | > 100 µM (inactive) |  | > 100 µM (inactive) | > 100 µM (inactive) | > 100 µM (inactive) | > 100 µM (inactive) | > 100 µM (inactive) | > 100 µM (inactive) | > 100 µM (inactive) |  | > 100 µM (inactive) |
| CCN(CC(O)COc1ccc2c(c1)[n+]([O-])nc(N)[n+]2[O-])C(C)=O (centres undefined) | > 100 µM (inactive) | > 100 µM (inactive) | > 100 µM (inactive) | 31.1 µM (inactive) | > 100 µM (inactive) | > 100 µM (inactive) | > 100 µM (inactive) | > 100 µM (inactive) | > 100 µM (inactive) | > 100 µM (inactive) | > 100 µM (inactive) | 80.5 µM (inactive) | > 100 µM (inactive) |  | > 100 µM (inactive) | > 100 µM (inactive) | 49.7 µM (inactive) | > 100 µM (inactive) | 39 µM (inactive) | 38.9 µM (inactive) |
| FC1=C2C3CCC(C3)C2C1(F)F (centres undefined) | > 100 µM (inactive) | > 100 µM (inactive) | > 100 µM (inactive) | > 100 µM (inactive) | > 100 µM (inactive) | > 100 µM (inactive) | > 100 µM (inactive) | > 100 µM (inactive) | > 100 µM (inactive) | > 100 µM (inactive) |  | > 100 µM (inactive) | > 100 µM (inactive) | > 100 µM (inactive) | > 100 µM (inactive) | > 100 µM (inactive) | > 100 µM (inactive) | > 100 µM (inactive) | > 100 µM (inactive) | > 100 µM (inactive) |
